Measured values reported in patent EP4733306A1, “NOVEL MODIFIED TRINUCLEOTIDE CAPPING DERIVATIVE, AND MRNA INTO WHICH CAPPING DERIVATIVE IS INTRODUCED” (Elonova Co., Ltd., priority 2023, dated 2025).
“Also recorded” adds a separate entry of the source.

What was measured:
[1] = test system: HEK 293 cells; assay: Luciferase (antigen protein) expression from capped Luciferase mRNA transfected into HEK 293 cells, luminescence readout; type: cell-based
Protocol: HEK 293 cells were cultured in a 60 mL culture plate containing DMEM supplemented with 10% FBS and 1% pen/strep. On the day prior to transfection, the cells were detached using trypsin and resuspended in new medium. The cells were seeded into a 96-well plate. On the next day, when the cells reached 70% confluence, the transfection mixture was prepared and transfection was performed.
The purified mRNA was quantified using a nanodrop spectrophotometer, and the transcription yield for each rNTP combination was compared. For cell transfection, 500 ng of each mRNA was collected and mixed with 5 µL of Opti-MEM. Separately, 0.5 µL of Lipofectamine was mixed with 5 µL of Opti-MEM in another tube and incubated at room temperature for 10 minutes. Then, the mRNA and Lipofectamine mixtures were combined in the same tube and incubated for an additional 5 minutes at room temperature. Finally, the transfection mixture was added to the cells and incubated for 24 hours.
(§1) After the incubation period, the medium was removed, and the cells were lysed using 50 µL of 1X lysis buffer. The cell lysate was transferred into microcentrifuge tubes. For luciferase luminescence analysis, 100 µL of luciferin substrate was added to each sample in a 96-well white plate. Then, 20 µL of each cell lysate sample was added and mixed by pipetting. Finally, the luminescence of luciferase was recorded using a luminometer instrument.
HEK 293 cells were cultured in a 60 mL culture plate containing DMEM supplemented with 10% FBS and 1% pen/strep. On the day prior to transfection, the cells were detached using trypsin and resuspended in fresh medium. The cells were then seeded in a 96-well plate. On the following day, when the cells reached 70% confluence, the transfection mixture was prepared and transfection was performed.
as §1, with “taken for” for “added to”

[2] = biological target: T7 RNA polymerase (Escherichia phage T7, UniProt P00573); assay: In vitro transcription of Luciferase template with T7 RNA polymerase in the presence of the capping material (gel); type: biochemical; conditions: compared with CleanCap (cap 1 commercial)
Protocol: The concentration of the luciferase template was measured using a nanodrop spectrophotometer. For each transcription reaction, 100 ng of template in 1 µL was placed into a microcentrifuge tube. Then, 1.5 µL of 10X transcription buffer (400 mM Tris-HCl, 60 mM MgCl2, 10 mM DTT, 20 mM spermidine) and 1.5 µL of 100 mM DTT were added to the tube. rATP, rCTP, and rUTP were each used (1 µL, 10 mM). For cap-dependent transcription of luciferase, rGTP was used (1 µL, 2.5 mM). The ratio of capping material was maintained at four times higher than rGTP so as to provide mRNA capped at ≥80%. Accordingly, 1 µL of capping material (10 mM) was added. RNase inhibitor (0.5 µL, 40 U/µL) and T7 RNA polymerase (1 µL, 50 U/µL) were added. Nuclease-free water (4.5-5.5 µL) was added to bring the final volume of the reaction to 15 µL. In the case of modified rNTPs, 10 mM stock solutions were prepared and the corresponding derivatives were added in place of rCTP and rUTP. The reaction was incubated at 37°C for 1 hour, and after 1 hour, 1.8 µL of 10X DNase I buffer (10 mM Tris-HCl, 2.5 mM MgCl2, 0.5 mM CaCl2) and 1 µL of DNase I (2 U/µL) were added to the reaction and incubated for an additional 15 minutes at 37°C to remove all DNA templates.

[3] = Luciferase mRNA capped with the analog, compared with Luciferase mRNA introduced with CleanCap (Luc mRNA Cap1)
[4] = Luciferase mRNA capped with the analog, compared with mRNA introduced with ARCA cap (cap 0) and CleanCap (cap 1 commercial), HEK 293

Chain of T7 RNA polymerase (P00573 whole entry): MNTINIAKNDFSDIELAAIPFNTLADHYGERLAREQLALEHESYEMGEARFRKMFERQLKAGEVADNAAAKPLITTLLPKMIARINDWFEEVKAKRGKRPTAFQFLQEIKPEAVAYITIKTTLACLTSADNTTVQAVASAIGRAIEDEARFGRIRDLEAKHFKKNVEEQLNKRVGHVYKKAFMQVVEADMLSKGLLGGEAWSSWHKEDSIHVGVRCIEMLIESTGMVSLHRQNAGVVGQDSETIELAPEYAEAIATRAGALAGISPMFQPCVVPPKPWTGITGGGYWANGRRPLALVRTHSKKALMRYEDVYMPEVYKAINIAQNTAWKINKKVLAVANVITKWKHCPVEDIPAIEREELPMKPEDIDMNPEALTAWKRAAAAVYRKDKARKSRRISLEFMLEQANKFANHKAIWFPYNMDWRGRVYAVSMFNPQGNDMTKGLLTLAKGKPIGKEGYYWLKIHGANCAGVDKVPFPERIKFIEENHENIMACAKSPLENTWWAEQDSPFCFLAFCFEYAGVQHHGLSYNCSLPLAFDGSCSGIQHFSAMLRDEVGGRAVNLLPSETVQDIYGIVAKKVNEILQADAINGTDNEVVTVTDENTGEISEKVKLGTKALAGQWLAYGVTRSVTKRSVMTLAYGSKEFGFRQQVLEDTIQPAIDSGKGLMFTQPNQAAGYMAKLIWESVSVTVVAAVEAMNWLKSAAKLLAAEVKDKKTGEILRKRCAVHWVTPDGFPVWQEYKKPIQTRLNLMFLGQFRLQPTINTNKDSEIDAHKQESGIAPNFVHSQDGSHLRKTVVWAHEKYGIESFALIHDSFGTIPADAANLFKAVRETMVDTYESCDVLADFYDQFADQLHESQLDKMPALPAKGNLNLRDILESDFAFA

Compound	antigen protein expression efficiency [1, 4]	other results
CO[C@@H]1[C@H](OP(=O)(O)OC[C@H]2O[C@@H](n3cnc4c(=O)[nH]c(N)nc43)[C@H](O)[C@@H]2O)[C@@H](COP(=O)(O)OP(=O)(O)OP(=O)(O)OC[C@H]2O[C@@H](n3c[n+](Cc4ccccn4)c4c(=O)[nH]c(N)nc43)[C@H](O)[C@@H]2O)O[C@H]1n1cnc2c(N)ncnc21 [PyCap1, Guanosine N7-(pyridin-2-ylmethyl) trinucleotide Cap1 analog]		antigen protein expression efficiency [1, 3]: higher; antigen protein expression efficiency ([1]; compared with CleanCap mRNA (Luc mRNA CAP1), in both mRNA using natural rNTPs and mRNA with pseudouridine triphosphate instead of rUTP, HEK 293, 24 hours): higher; antigen protein expression efficiency ([1]; compared with CleanCap mRNA (Luc mRNA CAP1), in both mRNA using natural rNTPs and mRNA with pseudouridine triphosphate instead of rUTP, HEK 293, 24 hours, listed as PyCapl): more efficient
CO[C@@H]1[C@H](OP(=O)(O)OC[C@H]2O[C@@H](n3cnc4c(=O)[nH]c(N)nc43)[C@H](O)[C@@H]2O)[C@@H](COP(=O)(O)OP(=O)(O)OC[C@H]2O[C@@H](n3c[n+](Cc4ccccc4)c4c(=O)[nH]c(N)nc43)[C@H](O)[C@@H]2O)O[C@H]1n1cnc2c(N)ncnc21 [^Bn7GppAmpG, Guanosine N7-benzyl trinucleotide diphosphate Cap1]	higher	
CO[C@@H]1[C@H](OP(=O)(O)OC[C@H]2O[C@@H](n3cnc4c(=O)[nH]c(N)nc43)[C@H](O)[C@@H]2O)[C@@H](COP(=O)(O)OP(=O)(S)OP(=O)(O)OC[C@H]2O[C@@H](n3c[n+](Cc4ccc(Cl)cc4)c4c([O-])nc(N)nc43)[C@H](O)[C@@H]2O)O[C@H]1n1cnc2c(N)ncnc21 (single isomer, unassigned) [^4-ClBn7GppspAmpG (D2), Guanosine N7-4-Cl-benzyl β-phosphorothioate trinucleotide Cap1]	higher	
CO[C@@H]1[C@H](OP(=O)(O)OC[C@H]2O[C@@H](n3cnc4c(=O)[nH]c(N)nc43)[C@H](O)[C@@H]2O)[C@@H](COP(=O)(O)OP(=O)(O)OP(=O)(O)OC[C@H]2O[C@@H](n3c[n+](Cc4ccccc4)c4c(=O)[nH]cnc43)[C@H](O)[C@@H]2O)O[C@H]1n1cnc2c(N)ncnc21 [^Bn7IpppAmpG, Inosine N7-benzyl trinucleotide Cap1]	higher	
CO[C@@H]1[C@H](OP(=O)(O)OC[C@H]2O[C@@H](n3cnc4c(=O)[nH]c(N)nc43)[C@H](O)[C@@H]2O)[C@@H](COP(=O)(O)OP(=O)(O)OP(=O)(O)OC[C@H]2O[C@@H](n3c[n+](Cc4cccs4)c4c(=O)[nH]c(N)nc43)[C@H](O)[C@@H]2O)O[C@H]1n1cnc2c(N)ncnc21 [ThioCap1, Guanosine N7-(thiophen-2-ylmethyl) trinucleotide Cap1 analog]		antigen protein expression efficiency [1, 3]: higher; antigen protein expression efficiency ([1]; compared with CleanCap mRNA (Luc mRNA CAP1), in both mRNA using natural rNTPs and mRNA with pseudouridine triphosphate instead of rUTP, HEK 293, 24 hours, listed as ThioCapl): more efficient; also recorded: higher; transcription efficiency [2]: similar
CO[C@@H]1[C@H](OP(=O)(O)OC[C@H]2O[C@@H](n3cnc4c(=O)[nH]c(N)nc43)[C@H](O)[C@@H]2O)[C@@H](COP(=O)(O)OP(=O)(O)OP(=O)(O)OC[C@H]2O[C@@H](n3c[n+](Cc4ccccc4)c4c(=O)[nH]c(N)nc43)[C@H](O)[C@@H]2O)O[C@H]1n1cnc2c(N)ncnc21 [BzCap1, Guanosine N7-benzyl trinucleotide Cap1]	higher	antigen protein expression efficiency [1, 3]: higher; antigen protein expression efficiency ([1]; mRNA using natural rNTPs, compared with CleanCap, HEK 293): more efficient
CO[C@@H]1[C@H](OP(=O)(O)OC[C@H]2O[C@@H](n3cnc4c(=O)[nH]c(N)nc43)[C@H](O)[C@@H]2O)[C@@H](COP(=O)(O)OP(=O)(O)OP(=O)(O)OC[C@H]2O[C@@H](n3c[n+](Cc4ccccc4)c4c(=O)[nH]c(N)nc43)[C@H](O)[C@@H]2O)O[C@H]1n1cnc2c(NCc3ccccc3)ncnc21 [^Bn7Gppp^Bn6AmpG, Guanosine N^7, adenosine N^6-dibenzyl trinucleotide Cap1]	higher	
L-Guanosine N7-benzyl trinucleotide Cap1 [^Bn7LGpppAmpG]	higher	
CO[C@@H]1[C@H](OP(=O)(O)OC[C@H]2O[C@@H](n3cnc4c(=O)[nH]c(N)nc43)[C@H](O)[C@@H]2O)[C@@H](COP(=O)(O)OP(=O)(O)OC[C@H]2O[C@@H](n3c[n+](Cc4ccc(Cl)cc4)c4c(=O)[nH]c(N)nc43)[C@H](O)[C@@H]2O)O[C@H]1n1cnc2c(N)ncnc21 [^4-ClBn7GppAmpG, Guanosine N7-4-Cl-benzyl trinucleotide diphosphate Cap1]	higher	
CO[C@@H]1[C@H](OP(=O)(O)OC[C@H]2O[C@@H](n3cnc4c(=O)[nH]c(N)nc43)[C@H](O)[C@@H]2O)[C@@H](COP(=O)(O)OP(O)(=S)OP(=O)(O)OC[C@H]2O[C@@H](n3c[n+](Cc4ccc(Cl)cc4)c4c(=O)[nH]c(N)nc43)[C@H](O)[C@@H]2O)O[C@H]1n1cnc2c(N)ncnc21 (single isomer, unassigned) [^4-ClBn7GppspAmpG (D1), Guanosine N7-4-Cl-benzyl β-phosphorothioate trinucleotide Cap1]	higher	
CO[C@@H]1[C@H](OP(=O)(O)OC[C@H]2O[C@@H](n3cnc4c(=O)[nH]c(N)nc43)[C@H](O)[C@@H]2O)[C@@H](COP(=O)(O)OP(=O)(O)OP(=O)(O)OC[C@H]2O[C@@H](n3c[n+](Cc4ccc(Cl)cc4)c4c(=O)[nH]c(N)nc43)[C@H](O)[C@@H]2O)O[C@H]1n1cnc2c(N)ncnc21 [^4-ClBn7GpppAmpG, Guanosine N7-4-Cl-benzyl trinucleotide Cap1]	higher	
CO[C@@H]1[C@H](OP(=O)(O)OC[C@H]2O[C@@H](n3cnc4c(=O)[nH]c(N)nc43)[C@H](O)[C@@H]2O)[C@@H](COP(=O)(O)OP(O)(=S)OP(=O)(O)OC[C@H]2O[C@@H](n3c[n+](Cc4ccccc4)c4c(=O)[nH]c(N)nc43)[C@H](O)[C@@H]2O)O[C@H]1n1cnc2c(N)ncnc21 (single isomer, unassigned) [^Bn7GppspAmpG (D1), Guanosine N7-benzyl β-phosphorothioate trinucleotide Cap1]	higher	
CO[C@@H]1[C@H](OP(=O)(O)OC[C@H]2O[C@@H](n3cnc4c(=O)[nH]c(N)nc43)[C@H](O)[C@@H]2O)[C@@H](COP(=O)(O)OP(O)(=S)OP(=O)(O)OC[C@H]2O[C@@H](n3c[n+](Cc4ccccc4)c4c(=O)[nH]c(N)nc43)[C@H](O)[C@@H]2O)O[C@H]1n1cnc2c(N)ncnc21 (single isomer, unassigned) [^Bn7GppspAmpG (D2), Guanosine N7-benzyl β-phosphorothioate trinucleotide Cap1]	higher	
